Legend:
Assay type in all cases: functional, cell-based
HEp-2 = assay: Cytotoxicity against Homo sapiens (human) Hep2 cells after 48 hr by SRB assay; conditions: HEp-2, 48 h
IMR-32 = assay: Cytotoxicity against Homo sapiens (human) IMR32 cells after 48 hr by SRB assay; conditions: IMR-32, 48 h
OVCAR = assay: Cytotoxicity against Homo sapiens (human) OVCAR cells after 48 hr by SRB assay
PC-3 = assay: Cytotoxicity against Homo sapiens (human) PC3 cells after 48 hr by SRB assay; conditions: PC-3, 48 h

## COc1ccc(C2CC(c3ccccc3)=NN2C(C)=O)cc1 (centres undefined)
HEp-2
  IC50: 10.7 µM
IMR-32
  IC50: 9.73 µM
OVCAR
  IC50: 13.8 µM
PC-3
  IC50: 7.67 µM

## COc1ccc(C2CC(c3ccc(Br)cc3)=NN2C(C)=O)cc1 (centres undefined)
HEp-2
  IC50: 17.9 µM
IMR-32
  IC50: 15.7 µM
OVCAR
  IC50: 16.9 µM
PC-3
  IC50: 17.8 µM

## CC(=O)N1N=C(c2ccc(Br)cc2)CC1c1ccccc1 (centres undefined)
HEp-2
  IC50: 27.8 µM
IMR-32
  IC50: 22.4 µM
OVCAR
  IC50: 21.2 µM
PC-3
  IC50: 29.9 µM

## COc1cc(C2CC(c3ccc(Br)cc3)=NN2C(C)=O)cc(OC)c1OC (centres undefined)
HEp-2
  IC50: 4.53 µM
IMR-32
  IC50: 3.13 µM
OVCAR
  IC50: 4.78 µM
PC-3
  IC50: 3.45 µM

## CC(=O)N1N=C(c2ccccc2)CC1c1ccc2c(c1)OCO2 (centres undefined)
HEp-2
  IC50: 6.65 µM
IMR-32
  IC50: 7.64 µM
OVCAR
  IC50: 8.73 µM
PC-3
  IC50: 8.89 µM

## CC(=O)N1N=C(c2ccccc2)CC1c1ccc(N(C)C)cc1 (centres undefined)
HEp-2
  IC50: 14.6 µM
IMR-32
  IC50: 9.66 µM
OVCAR
  IC50: 12 µM
PC-3
  IC50: 7.88 µM

## CC(=O)N1N=C(c2ccccc2)CC1c1cccc(Cl)c1Cl (centres undefined)
HEp-2
  IC50: 24 µM
IMR-32
  IC50: 42.9 µM
OVCAR
  IC50: 36.8 µM
PC-3
  IC50: 31.6 µM

## COc1cc(C2CC(c3ccccc3)=NN2C(C)=O)ccc1O (centres undefined)
HEp-2
  IC50: 4.99 µM
IMR-32
  IC50: 5.78 µM
OVCAR
  IC50: 6.63 µM
PC-3
  IC50: 7.56 µM

## COc1cc(C2CC(c3ccccc3)=NN2C(C)=O)cc(OC)c1OC (centres undefined)
HEp-2
  IC50: 3.56 µM
IMR-32
  IC50: 3.38 µM
OVCAR
  IC50: 4.64 µM
PC-3
  IC50: 3.39 µM

## COc1ccc(C2CC(c3ccc(Br)cc3)=NN2C(C)=O)cc1OC (centres undefined)
HEp-2
  IC50: 8.87 µM
IMR-32
  IC50: 5.54 µM
OVCAR
  IC50: 5.59 µM
PC-3
  IC50: 7.76 µM

## CC(=O)N1N=C(c2ccc(Br)cc2)CC1c1cccc(Cl)c1Cl (centres undefined)
HEp-2
  IC50: 50 µM
IMR-32
  IC50: 45.7 µM
OVCAR
  IC50: 39.8 µM
PC-3
  IC50: 38.8 µM

## CC(=O)N1N=C(c2ccc(Br)cc2)CC1c1ccc2c(c1)OCO2 (centres undefined)
HEp-2
  IC50: 8.72 µM
IMR-32
  IC50: 9.89 µM
OVCAR
  IC50: 11.2 µM
PC-3
  IC50: 11 µM

## CC(=O)N1N=C(c2cccc([N+](=O)[O-])c2)CC1c1ccccc1 (centres undefined)
HEp-2
  IC50: 8.93 µM
IMR-32
  IC50: 7.89 µM
OVCAR
  IC50: 9.92 µM
PC-3
  IC50: 8.71 µM

## COc1ccc(C2CC(c3cccc([N+](=O)[O-])c3)=NN2C(C)=O)cc1 (centres undefined)
HEp-2
  IC50: 8.21 µM
IMR-32
  IC50: 6.65 µM
OVCAR
  IC50: 8.76 µM
PC-3
  IC50: 7.83 µM

## COc1ccc(C2CC(c3cccc([N+](=O)[O-])c3)=NN2C(C)=O)cc1OC (centres undefined)
HEp-2
  IC50: 7.81 µM
IMR-32
  IC50: 6.22 µM
OVCAR
  IC50: 8.11 µM
PC-3
  IC50: 6.78 µM

## CC(=O)N1N=C(c2cccc([N+](=O)[O-])c2)CC1c1cccc(Cl)c1Cl (centres undefined)
HEp-2
  IC50: 27.6 µM
IMR-32
  IC50: 25.3 µM
OVCAR
  IC50: 19.7 µM
PC-3
  IC50: 18.2 µM

## CC(=O)N1N=C(c2cccc([N+](=O)[O-])c2)CC1c1ccc2c(c1)OCO2 (centres undefined)
HEp-2
  IC50: 7.65 µM
IMR-32
  IC50: 7.89 µM
OVCAR
  IC50: 9.87 µM
PC-3
  IC50: 8.21 µM

## CC(=O)N1N=C(c2ccco2)CC1c1ccccc1 (centres undefined)
HEp-2
  IC50: 32.1 µM
IMR-32
  IC50: 29.1 µM
OVCAR
  IC50: 31.3 µM
PC-3
  IC50: 21.3 µM

## CC(=O)N1N=C(c2ccccc2)CC1c1ccccc1 (centres undefined)
HEp-2
  IC50: 11.8 µM
IMR-32
  IC50: 11.9 µM
OVCAR
  IC50: 23.5 µM
PC-3
  IC50: 8.69 µM

## COc1ccc(C2CC(c3ccccc3)=NN2C(C)=O)cc1OC (centres undefined)
HEp-2
  IC50: 7.85 µM
IMR-32
  IC50: 4.49 µM
OVCAR
  IC50: 5.56 µM
PC-3
  IC50: 6.78 µM

## CC(=O)O[C@H]1C(=O)[C@@]2(C)[C@H]([C@H](OC(=O)c3ccccc3)[C@]3(O)C[C@H](OC(=O)[C@H](O)[C@@H](NC(=O)c4ccccc4)c4ccccc4)C(C)=C1C3(C)C)[C@]1(OC(C)=O)CO[C@@H]1C[C@@H]2O [PACLITAXEL]
HEp-2
  IC50: 0.11 µM
IMR-32
  IC50: 0.03 µM
OVCAR
  IC50: 0.06 µM
PC-3
  IC50: 0.12 µM
